The compounds below were run against human recombinant LRRK2 protein (Homo sapiens, UniProt Q5S007) (assay: LRRK2 kinase activity assay (ADP-Glo, LRRKtide peptide)). Details: human recombinant LRRK2 wt, LRRKtide peptide and ATP, 1 h at 37° C.
Type: biochemical
Protocol: The inhibition of LRRK2 kinase was assessed using human recombinant LRRK2 protein in an in vitro peptide-based kinase assay.
LRRK2 Kinase reactions were carried out in 384-well white polystyrene plates in a final volume of 6 μl using ADP-Glo™ Kinase Assay kit (Promega Corp.). Compound and substrates (LRRKtide peptide and ATP) in assay buffer were first dispensed in wells. Kinase reaction was then started by the addition of human recombinant LRRK2 protein. After 1 h-incubation at 37° C., the enzymatic reactions was stopped by the addition of 6 μl of ADP-Glo Reagent-1 and an additional 40-minutes incubation at 23° C. (residual ATP depletion). A final 30-minutes incubation after 12 μL reagent-2 addition (ADP to ATP conversion and luciferin/luciferase reaction) was performed before luminescent signal acquisition (EnVision™ multimode plate reader—PerkinElmer, Inc.). Data from 10 individual concentrations of tested compounds (N=2) were fitted (XLfit™—ID Business Solutions Ltd) to deliver IC50s (compound concentration leading to 50% inhibition of reference enzymatic activity).
The compounds are dissolved to 5 mM in DMSO. When needed, solutions are sonicated in a bath sonicator.
Table 2 provides the pIC50 values of the compounds according to the invention, obtained using the above mentioned kinase assay. Activities are represented as +++, ++ and +, having the following meanings: • «+++» means an IC50<10 nM • «++» means an IC50<100 nM • «+» means an IC50<1 μM • «−» means an IC50>1 μM

Chain of human recombinant LRRK2 protein (Q5S007 whole entry): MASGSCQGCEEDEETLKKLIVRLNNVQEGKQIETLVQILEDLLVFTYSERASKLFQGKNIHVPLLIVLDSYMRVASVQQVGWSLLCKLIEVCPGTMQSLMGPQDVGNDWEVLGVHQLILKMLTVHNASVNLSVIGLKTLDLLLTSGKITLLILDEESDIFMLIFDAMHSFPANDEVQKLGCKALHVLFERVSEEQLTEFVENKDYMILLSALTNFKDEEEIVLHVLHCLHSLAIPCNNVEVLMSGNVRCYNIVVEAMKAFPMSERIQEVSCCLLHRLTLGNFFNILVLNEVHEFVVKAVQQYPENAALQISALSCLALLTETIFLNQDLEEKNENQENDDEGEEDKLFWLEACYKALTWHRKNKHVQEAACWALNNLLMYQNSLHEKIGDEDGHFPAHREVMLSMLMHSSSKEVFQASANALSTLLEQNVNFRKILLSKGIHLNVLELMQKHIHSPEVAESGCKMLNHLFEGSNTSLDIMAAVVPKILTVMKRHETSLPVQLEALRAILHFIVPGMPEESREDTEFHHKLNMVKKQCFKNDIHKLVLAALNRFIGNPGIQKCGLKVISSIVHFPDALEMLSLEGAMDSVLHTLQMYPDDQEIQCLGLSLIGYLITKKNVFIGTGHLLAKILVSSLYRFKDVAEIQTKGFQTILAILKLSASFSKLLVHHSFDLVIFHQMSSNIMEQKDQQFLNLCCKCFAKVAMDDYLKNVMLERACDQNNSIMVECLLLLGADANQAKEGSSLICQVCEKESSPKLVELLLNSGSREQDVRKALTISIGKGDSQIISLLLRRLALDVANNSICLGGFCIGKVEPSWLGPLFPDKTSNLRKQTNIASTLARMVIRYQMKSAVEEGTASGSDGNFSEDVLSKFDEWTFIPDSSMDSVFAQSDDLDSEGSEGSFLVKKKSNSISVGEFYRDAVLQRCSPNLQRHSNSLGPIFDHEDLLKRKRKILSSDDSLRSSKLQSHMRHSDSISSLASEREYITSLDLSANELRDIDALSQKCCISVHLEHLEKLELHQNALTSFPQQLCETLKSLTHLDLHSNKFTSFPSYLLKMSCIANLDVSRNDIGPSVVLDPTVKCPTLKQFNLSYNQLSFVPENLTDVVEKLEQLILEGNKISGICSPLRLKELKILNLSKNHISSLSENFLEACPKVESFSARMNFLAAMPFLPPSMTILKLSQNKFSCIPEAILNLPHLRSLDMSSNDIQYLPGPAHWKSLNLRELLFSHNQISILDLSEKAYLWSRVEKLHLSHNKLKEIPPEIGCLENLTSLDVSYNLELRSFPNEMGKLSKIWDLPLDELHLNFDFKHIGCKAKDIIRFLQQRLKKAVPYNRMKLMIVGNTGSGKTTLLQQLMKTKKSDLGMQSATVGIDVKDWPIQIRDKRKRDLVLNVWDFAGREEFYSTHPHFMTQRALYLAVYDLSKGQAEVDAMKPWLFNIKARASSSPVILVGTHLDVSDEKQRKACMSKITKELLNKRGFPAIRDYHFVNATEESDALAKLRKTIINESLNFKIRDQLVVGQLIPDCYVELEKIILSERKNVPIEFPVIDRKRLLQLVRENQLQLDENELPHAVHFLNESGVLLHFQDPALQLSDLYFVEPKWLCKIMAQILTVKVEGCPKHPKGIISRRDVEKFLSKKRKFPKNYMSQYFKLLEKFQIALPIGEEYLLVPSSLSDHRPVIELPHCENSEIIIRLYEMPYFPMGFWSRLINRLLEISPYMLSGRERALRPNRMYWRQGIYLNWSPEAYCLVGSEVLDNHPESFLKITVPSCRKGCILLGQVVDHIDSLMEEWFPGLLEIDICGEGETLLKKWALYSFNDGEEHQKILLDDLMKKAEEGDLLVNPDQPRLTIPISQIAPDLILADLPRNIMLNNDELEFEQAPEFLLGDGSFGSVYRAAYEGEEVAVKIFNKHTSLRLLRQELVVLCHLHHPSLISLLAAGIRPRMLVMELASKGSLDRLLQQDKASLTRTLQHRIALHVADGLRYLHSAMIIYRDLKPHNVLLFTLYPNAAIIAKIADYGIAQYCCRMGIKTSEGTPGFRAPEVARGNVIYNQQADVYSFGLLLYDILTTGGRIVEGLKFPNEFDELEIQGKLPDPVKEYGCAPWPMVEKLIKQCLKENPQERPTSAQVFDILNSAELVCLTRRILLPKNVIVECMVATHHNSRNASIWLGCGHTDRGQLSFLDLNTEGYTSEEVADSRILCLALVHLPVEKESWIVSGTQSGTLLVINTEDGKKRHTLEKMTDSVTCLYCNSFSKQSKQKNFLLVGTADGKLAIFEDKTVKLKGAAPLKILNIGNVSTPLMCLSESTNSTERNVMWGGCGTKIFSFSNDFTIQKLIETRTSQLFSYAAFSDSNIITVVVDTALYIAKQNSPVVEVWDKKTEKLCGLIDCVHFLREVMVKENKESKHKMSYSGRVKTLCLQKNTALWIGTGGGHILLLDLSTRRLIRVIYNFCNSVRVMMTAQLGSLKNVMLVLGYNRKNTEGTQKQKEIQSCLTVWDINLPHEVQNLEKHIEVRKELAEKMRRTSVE

| Compound | IC50 [nM] |
| --- | --- |
| COC1CN(c2cc3nc(n2)O[C@H](C)COCC[C@H](C)Oc2ccc4[nH]nc-3c4c2)C1 [Example 44, (8R,13S)-4-(3-methoxyazetidin-1-yl)-8,13-dimethyl-7,10,14-trioxa-5,19,20, 23-tetraazatetracyclo[13.5.2.1^2,6.0^18,21]tricosa-1(20),2(23),3,5,15(22),16, 18(21)-heptaene] | < 10 |
| C[C@@H]1CCOCCOc2nccc(n2)-c2n[nH]c3ccc(cc23)O1 [Example 45, (13R)-13-methyl-7,10,14-trioxa-5,19,20,23-tetraazatetracyclo[13.5.2.1^2,6.0^18,21]tricosa-1(20),2(23),3,5, 15(22),16,18(21)-heptaene] | < 10 |
| C[C@H]1CCOC[C@H](C)Oc2nccc(n2)-c2n[nH]c3ccc(cc23)O1 [Example 46, (8S,13S)-8,13-dimethyl-7,10,14-trioxa-5,19,20,23-tetraazatetracyclo [13.5.2.1^2,6.0^18,21]tricosa-1(20),2(23),3,5,15(22),16,18(21)-heptaene] | < 100 |
| C[C@H]1CCOC[C@H](C)Oc2cncc(n2)-c2n[nH]c3ccc(cc23)O1 [Example 47, (8S,13S)-8,13-dimethyl-7,10,14-trioxa-4,19,20,23-tetraazatetracyclo[13.5.2.1^2,6.0^18,21]tricosa-1(20),2(23),3,5,15(22),16,18(21)-heptaene] | < 100 |
| C[C@H]1CCOCCCc2csc(n2)-c2n[nH]c3ccc(cc23)O1 [Example 48, (12S)-12-methyl-9,13-dioxa-3-thia-18,19,22-triazatetracyclo[12.5.2.1^2,5.0^17,20]docosa-1(19),2(22),4,14(21),15,17(20)-hexaene] | < 10 |
| CO[C@@H]1CCN(c2cc3nc(n2)O[C@H](C)COCC[C@H](C)Oc2ccc4[nH]nc-3c4c2)C1 [Example 49, (8R,13S)-4-[(3R)-3-methoxypyrrolidin-1-yl]-8,13-dimethyl-7,10,14-trioxa-5,19,20,23-tetraazatetracyclo[13.5.2.1^2,6.0^18,21]tricosa-1(20),2(23),3,5, 15(22),16,18(21)-heptaene] | < 10 |
| C[C@@H]1COCCOCCn2cc(cn2)-c2n[nH]c3ccc(cc23)O1 [Example 50, (13R)-13-methyl-8,11,14-trioxa-4,5,19,20-tetraazatetracyclo[13.5.2.1^2,5.0^18,21]tricosa-1(20),2(23),3,15(22),16,18(21)-hexaene] | < 10 |
| C[C@H]1COc2cncc(n2)-c2n[nH]c3ccc(cc23)O[C@@H](C)CCO1 [Example 51, (9S,13S)-9,13-dimethyl-7,10,14-trioxa-4,19,20,23-tetraazatetracyclo[13.5.2.1^2,6.0^18,21]tricosa-1(20),2(23),3,5,15(22),16,18(21)-heptaene] | < 100 |
| C[C@H]1COCC[C@H](C)Oc2ccc3[nH]nc(c3c2)-c2cnn(c2)C1 [Example 52, (7R,12S)-7,12-dimethyl-9,13-dioxa-4,5,18,19-tetraazatetracyclo[12.5.2.1^2,5.0^17,20]docosa-1(19),2(22),3,14(21),15,17(20)-hexaene] | < 10 |
| C[C@@H]1CCOC[C@H](C)Oc2ccc3[nH]nc(c3c2)-c2ccnc(n2)O1 [Example 53, (8R,13S)-8,13-dimethyl-7,11,14-trioxa-5,19,20,23-tetraazatetracyclo[13.5.2.1^2,6.0^18,21]tricosa-1(20),2(23),3,5,15(22),16,18(21)-heptaene] | < 10 |
| C[C@H]1COc2ccc3[nH]nc(c3c2)-c2cnn(c2)CCOCCO1 [Example 54, (12S)-12-methyl-8,11,14-trioxa-4,5,19,20-tetraazatetracyclo[13.5.2.1^2,5.0^18,21]tricosa-1(20),2(23),3,15(22),16,18(21)-hexaene] | < 10 |
| C[C@@H]1COCCCOc2ccc3[nH]nc(c3c2)-c2ccnc(n2)O1 [Example 55, (8R)-8-methyl-7,10,14-trioxa-5,19,20,23-tetraazatetracyclo[13.5.2.1^2,6.0^18,21] tricosa-1(20),2(23),3,5,15(22),16,18(21)heptaene] | < 10 |
